# Assay results published in publication PMC10060569 (Frontiers in Pharmacology, 2023).
# Experiments:
# COX1 = tested on: COX1; parameters: method as in Warner et al., 1999; settings: ref Warner et al., 1999; cited from earlier work
# hP2X4R = target: T1, hP2X4R (Homo sapiens, UniProt Q99571); assay: TEVC of ATP-induced currents, hP2X4R in X. laevis oocytes (steady-state protocol); type: cell-based
# T1 construct: expressed in transfected cells; host or cells: Xenopus laevis oocytes (cRNA injection)
# T1 sequence (Q99571 1-388): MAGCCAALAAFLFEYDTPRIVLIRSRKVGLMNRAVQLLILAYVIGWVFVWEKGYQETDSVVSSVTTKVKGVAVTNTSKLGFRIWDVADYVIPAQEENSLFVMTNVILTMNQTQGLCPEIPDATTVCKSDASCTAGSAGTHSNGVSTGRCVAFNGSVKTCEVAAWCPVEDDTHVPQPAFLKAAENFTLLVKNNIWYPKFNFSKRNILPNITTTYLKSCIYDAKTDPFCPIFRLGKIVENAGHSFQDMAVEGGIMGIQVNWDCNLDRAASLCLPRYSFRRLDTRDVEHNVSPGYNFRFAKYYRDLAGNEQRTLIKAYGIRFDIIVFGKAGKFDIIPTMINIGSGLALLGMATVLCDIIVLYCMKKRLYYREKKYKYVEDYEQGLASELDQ
# Text: (§1) Oocyte expression plasmids encoding the wild-type (wt) and N-terminally His-tagged (His-) fusion constructs of the hP2X2R, hP2X3R, hP2X4R, and hP2X7R, and the mutant His-^20RMVL^23KVIV^23S^26N-hP2X1R, S^15V-rP2X3R, and His-S^15V-hP2X3R were the same as used in previous research ([Hausmann et al., 2006]; [Wolf et al., 2011]; [Hausmann et al., 2014]; [Obrecht et al., 2019]). In most cases, the N-terminal His-tagged variants of P2XRs were used here and in the previous studies to allow biochemical analyses on affinity-purified proteins using the same constructs. Although this was not required for the present study, it allows for better comparability with our previous studies. […]
# (§2) Ion currents mediated by P2X receptors were evoked by the indicated concentration of ATP or α,β-meATP and were recorded 1 or 2 days after cRNA injection at ambient temperature at a holding potential of −60 mV by two-electrode voltage clamp (TEVC) as previously described ([Hausmann et al., 2006]). […]
# S15V-rP2X3R [1] = target: T2, S15V-rP2X3R (Rattus norvegicus, UniProt P49654, S15V); parameters: method as in Obrecht et al., 2019; settings: previous screening; ref Obrecht et al., 2019; cited from earlier work
# T2 construct: expressed in transfected cells; host or cells: Xenopus laevis oocytes (cRNA injection)
# T2 sequence (P49654 1-397 S15V): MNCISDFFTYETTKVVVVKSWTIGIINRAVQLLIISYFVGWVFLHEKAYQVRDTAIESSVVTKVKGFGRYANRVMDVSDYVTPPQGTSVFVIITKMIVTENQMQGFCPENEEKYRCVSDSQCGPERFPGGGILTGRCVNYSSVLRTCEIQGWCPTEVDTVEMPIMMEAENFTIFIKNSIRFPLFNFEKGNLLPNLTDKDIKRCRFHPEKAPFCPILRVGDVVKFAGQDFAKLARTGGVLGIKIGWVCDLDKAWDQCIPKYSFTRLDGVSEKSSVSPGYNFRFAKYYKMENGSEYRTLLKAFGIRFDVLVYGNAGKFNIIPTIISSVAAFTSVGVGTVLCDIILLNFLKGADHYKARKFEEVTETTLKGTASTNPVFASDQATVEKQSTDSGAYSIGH
# G189A/S15V-hP2X3R = assay: TEVC of ATP-induced currents, G189A/S15V-hP2X3R mutant in X. laevis oocytes; type: cell-based, human; settings: ± SEM
# Protocol: Ion currents mediated by P2X receptors were evoked by the indicated concentration of ATP or α,β-meATP and were recorded 1 or 2 days after cRNA injection at ambient temperature at a holding potential of −60 mV by two-electrode voltage clamp (TEVC) as previously described ([Hausmann et al., 2006]). Calcium-free ORi^− solution (90 mM NaCl, 1 mM KCl, 2 mM MgCl2, 10 mM HEPES, pH 7.4) was used to avoid bias due to calcium-activated chloride channels (CaCC) endogenously expressed in X. laevis oocytes ([Miledi, 1982]; [Methfessel et al., 1986]). […]
# In the case of fast-desensitizing P2XR subtypes (P2X1R and P2X3R), ATP is applied five times in repetition, and the ATP-induced current amplitude in the presence (after pre-incubation) of the antagonist (fourth application) is compared to the arithmetic mean of flanking control ATP-induced current amplitudes in the absence of the antagonist (third and fifth ATP application). […] The correction factor was calculated as the ratio of the fourth ATP-induced current amplitude to the third amplitude (Eq. 3) when the experiment was performed in the absence of the antagonist. […] Since the magnitude of the run-down varies from day to day and batch to batch of oocytes, the correction factor was determined on each day of the experiments and was calculated as the arithmetic mean of several recordings (at least 3–5 and on average 5) on each day.
# S15V-rP2X3R [2] = target: T2, S15V-rP2X3R; assay: TEVC of ATP-induced currents, S15V-rP2X3R expressed in X. laevis oocytes (peak current protocol); type: cell-based; settings: 1 µM ATP
# Text: as §1, §2
SMILES,IC50 (COX1) [µM],"IC50 (hP2X4R; 10 µM ATP, steady-state protocol, X. laevis oocytes) [µM]",inhibition at 1000 µM (hP2X4R; read-out: Max. inhibition at 1 mM) [%],inhibition of S15V-rP2X3R-mediated currents in screening (S15V-rP2X3R [1]) [%],% inhibition of 10 µM ATP-induced currents by 10 µM diclofenac (G189A/S15V-hP2X3R),IC50 (S15V-rP2X3R [2]; X. laevis oocytes) [µM],inhibitory effect at 100 µM FFA (S15V-rP2X3R [2]; 100 µM FFA) [%]
"O=C(O)Cc1ccccc1Nc1c(Cl)cccc1Cl [Diclofenac, diclofenac]",[…],1110,61.2,> 80,6.4% ± 3.0%,–,–
"O=C(O)c1ccccc1Nc1cccc(C(F)(F)F)c1 [Flufenamic acid, flufenamic acid]",–,–,–,–,–,264,25
